≈ marks a conversion by molar mass, not a printed value. Where two headings read alike, the source gives them in different places.
What was measured:
Type in all cases: cell-based
[1] = system: Pseudomonas aeruginosa SG 137; test: Microdilution test (MIC); conditions: P. aeruginosa SG 137
Description: (§1) The minimum inhibiting concentrations (MICs) were determined for the following bacterial strains: Pseudomonas aeruginosa NCTC 10701, NCTC 10662, SG 137, ATCC 27853, KW 799 WT and KW 799/61, E. coli DCO, DC2 and ATCC 25922, Serratia marcescens SG 621; Salmonella gallinarum ATCC 9184, Klebsiella pneumoniae ATCC 10031 and SG 117.

E. coli ATCC 25922 = test: Microdilution test (MIC)
Description: as §1

[2] = system: Pseudomonas aeruginosa ATCC 27853; test: Microdilution test (MIC); conditions: P. aeruginosa ATCC 27853
Description: as §1

[3] = system: Klebsiella pneumoniae ATCC 10031; test: Microdilution test (MIC)
Description: as §1

[4] = system: Stenotrophomonas maltophilia GN 12873; test: Microdilution test (MIC)
E. coli AB 2847 = system: E. coli AB 2847
From the text: (§2) In the indicator mutants, the synthesis of the respective siderophores, e.g. pyoverdin, pyochelin, enterobactin, aerobactin or yersiniabactin, or the biosynthesis of aromatic compounds, is blocked, or there is a lack of receptors for enterobactin, pyochelin or pyoverdin and for other important components for the bacterial transport of iron (e.g. the membrane proteins Cir, Fiu, FepA and TonB). Under conditions where there is a lack of iron, these mutants therefore cannot grow or can only grow to a very slight extent. In particular, the following indicator mutants were used: Pseudomonas aeruginosa PAO 6609, K 407, 690; E. coli AB 2847, Salmonella typhimurium enb-7, TA 270; Klebsiella pneumoniae KN 4401; Yersinia enterocolitica WAH; Proteus mirabilis 12 (wild); Proteus vulgaris 718 (wild) and Morganella morganii SBK3 (wild). […] The controls used were ferrioxamine E for the Pseudomonas strains, ferrioxamine G and enterobactin for the Salmonella strains, ferrichrome for the E. coli, Klebsiella and Y. enterocol. strains, and 3,4-dihydroxybenzylidene-2,4,6-trimethylaniline for Morganella morganii (see the above literature reference by R. Reissbrodt et al.).
(§3) The annotations + and (+) relate to non-specific promotion of growth.

[5] = system: Salmonella typhimurium TA 2700
From the text: as §2, §3

[6] = system: Klebsiella pneumoniae KN 4401; conditions: Klebsiella KN 4401
From the text: as §2, §3

[7] = system: Proteus vulgaris 718 (wild); conditions: Proteus vul. 718
From the text: as §2, §3

[8] = system: Pseudomonas aeruginosa PAO 6609
From the text: as §2, §3

[9] = system: Pseudomonas aeruginosa 690
From the text: as §2, §3

[10] = system: Salmonella typhimurium enb-7
From the text: as §2, §3

[11] = system: Proteus mirabilis 12 (wild); conditions: Proteus mir. 12
From the text: as §2, §3

[12] = system: Morganella morganii SBK3 (wild); conditions: M. morg. SBK 3
From the text: as §2, §3

[13] = system: Pseudomonas aeruginosa K 407; conditions: Pseudomonas aeruginosa K407
From the text: as §2, §3

E. coli DC2 = test: microbe, parasite or virus in culture
Description: as §1
(§4) With the test germs KW 799/WT and /61 of Pseudomonas and DCO and DC2 of E. coli, the effect of improved penetration capacity on the efficacy of the substances was investigated.

[14] = system: Pseudomonas aeruginosa KW 799 WT; test: Microdilution test (MIC); conditions: P. aeruginosa KW 799/WT
Description: as §1, §4

[15] = system: Pseudomonas aeruginosa KW 799/61; test: Microdilution test (MIC)
Description: as §1, §4

E. coli DC0 (wild type) = test: Agar diffusion test; conditions: concentration 100 μg/ml
[16] = system: Pseudomonas aeruginosa KW 799/61 (penetration mutant); conditions: P. aeruginosa KW799/61
[17] = system: Stenotrophomonas maltophilia GN 12873; test: Agar diffusion test; conditions: concentration 100 μg/ml
[18] = system: Pseudomonas aeruginosa SG 137 (carbenicillin-resistant); test: Agar diffusion test; conditions: concentration 100 μg/ml, P. aeruginosa SG 137
[19] = system: Pseudomonas aeruginosa NCTC 10662; test: Microdilution test (MIC); conditions: P. aeruginosa NCTC 10662
Description: as §1

[20] = system: Serratia marcescens SG 621; test: Microdilution test (MIC)
Description: as §1

[21] = system: Pseudomonas aeruginosa KW 799 WT (wild type); test: Agar diffusion test; conditions: concentration 100 μg/ml, P. aeruginosa KW799/WT
[22] = system: E. coli DC2 (penetration mutant); conditions: concentration 100 μg/ml
[23] = system: Salmonella gallinarum ATCC 9184; conditions: concentration 100 μg/ml, Salmonella galinarum ATCC 9184
[24] = system: Klebsiella pneumoniae SG 117; test: Agar diffusion test; conditions: concentration 100 μg/ml
[25] = system: Klebsiella pneumoniae ATCC 10031; test: Agar diffusion test; conditions: concentration 100 μg/ml
[26] = system: Pseudomonas aeruginosa ATCC 27853 (wild type); test: Agar diffusion test; conditions: concentration 100 μg/ml; P. aeruginosa ATCC 27853

Row | Compound | Growth areas of siderophore indicator strains (diameter) (E. coli AB 2847) [mm] | Growth areas of siderophore indicator strains (diameter) [5] [mm] | Growth areas of siderophore indicator strains (diameter) [6] [mm] | Growth areas of siderophore indicator strains (diameter) [7] [mm] | Growth areas of siderophore indicator strains (diameter) [8] [mm] | Growth areas of siderophore indicator strains (diameter) [9] [mm] | Growth areas of siderophore indicator strains (diameter) [10] [mm] | Growth areas of siderophore indicator strains (diameter) [11] [mm] | Growth areas of siderophore indicator strains (diameter) [12] [mm] | Growth areas of siderophore indicator strains (diameter) [13] [mm] | also measured
1 | C[C@@H](O)[C@H]1C(=O)N2C(C(=O)O)=C(S[C@@H]3CN[C@H](C(=O)N(C)C)C3)[C@H](C)[C@H]12 [Meropenem, reference compound] |  |  |  |  |  |  |  |  |  |  | MIC ([1]; Pseudomonas aeruginosa, SG137): 0.1 µg/mL (≈ 0.261 µM); MIC (E. coli ATCC 25922; Escherichia coli, ATCC25922): < 0.05 µg/mL; MIC ([2]; Pseudomonas aeruginosa, ATCC27853): 0.2 µg/mL (≈ 0.522 µM); MIC ([3]; ATCC10031): < 0.05 µg/mL; MIC ([4]; GN12873): > 100 µg/mL
2 | CC(=O)Oc1ccc(C=Nc2ccc(C(=O)O)cc2)cc1OC(C)=O [Substance 6, 4-(3,4-Diacetoxybenzylideneamino)-benzoic Acid] | 17 | 0 | 25 | 25 | 14 | 19 | 34 | 23 | 25 | 17 | 
3 | CC(=O)Oc1ccc(N=Cc2cc(C(=O)O)cc(O)c2O)cc1OC(C)=O [Substance 7, 3-[(3,4-Diacetoxyphenylimino)-methyl]-4,5-dihydroxybenzoic Acid] | 0 | 0 | 23 | 22 | 0 | 0 | 0 | 20 | 22 | 0 | 
4 | O=C(O)c1cccc(N=Nc2ccc(O)c(O)c2)c1 [Substance 8, 3-(3,4-Dihydroxyphenylazo)benzoic Acid] | 13 | 0 | 20 | 20 | 13 | 0 | 0 | 20 | 20 | 15 | 
5 | COC(=O)Oc1ccc(C(=O)NN=C(C(=O)O)c2ccccc2)cc1OC(=O)OC [Substance 12, {[3,4-di(Methoxycarbonyloxy)-benzoyl]-hydrazono}-phenylacetic Acid] | 14 | 0 | 30 | 20 | 14 | 12 | 0 | 17 | 15 | 0 | 
6 | COC(=O)Oc1cccc(C(=O)N2COC[C@H]2C(=O)N[C@@H](C(=O)N[C@@H]2C(=O)N3[C@@H]2SC(C)(C)[C@@H]3C(=O)O)c2ccccc2)c1OC(=O)OC [Substance 30, (S)-N-[3-(2,3-di-(Methoxycarbonyloxy)-benzoyl]-oxazolidin-4-oyl]-ampicillin] |  |  |  |  |  |  |  |  |  |  | MIC values, microdilution test (E. coli DC2): 0.4 µg/mL (≈ 0.571 µM); MIC values, microdilution test [14]: 0.78 µg/mL (≈ 1.11 µM); MIC values, microdilution test [15]: 0.2 µg/mL (≈ 0.285 µM); inhibition spot diameter in the agar diffusion test (E. coli DC0 (wild type)): 25 mm; inhibition spot diameter in the agar diffusion test ([16]; concentration 100 μg/ml): 33 mm; inhibition spot diameter in the agar diffusion test [17]: 19 mm; inhibition spot diameter in the agar diffusion test [18]: 22 mm; MIC values, microdilution test [1]: 0.4 µg/mL (≈ 0.571 µM); MIC values, microdilution test [19]: 6.25 µg/mL (≈ 8.92 µM); MIC values, microdilution test (E. coli ATCC 25922): 6.25 µg/mL (≈ 8.92 µM); MIC values, microdilution test [20]: 50 µg/mL (≈ 71.4 µM); MIC values, microdilution test [3]: 6.25 µg/mL (≈ 8.92 µM); inhibition spot diameter in the agar diffusion test [21]: 27 mm; inhibition spot diameter in the agar diffusion test [22]: 31 mm; inhibition spot diameter in the agar diffusion test [23]: 29 mm; MIC values, microdilution test [4]: 3.12 µg/mL (≈ 4.45 µM)
7 | CC(=O)Oc1cccc(C(=O)NCCCC[C@H](NC(=O)c2cccc(OC(C)=O)c2OC(C)=O)C(=O)N[C@@H](C(=O)N[C@@H]2C(=O)N3[C@@H]2SC(C)(C)[C@@H]3C(=O)O)c2ccccc2)c1OC(C)=O [Substance Na-31, N-[L-2,6-bis-(2,3-diacetoxybenzoylamino)-hexanoyl]-ampicillin] |  |  |  |  |  |  |  |  |  |  | inhibition spot diameter in the agar diffusion test [24]: 26 mm; inhibition spot diameter in the agar diffusion test [25]: 21 mm; inhibition spot diameter in the agar diffusion test (E. coli DC0 (wild type); listed as Na-31): 28 mm; inhibition spot diameter in the agar diffusion test ([16]; [ ] at 50 μg/ml): [38] mm; inhibition spot diameter in the agar diffusion test ([17]; listed as Na-31): 29 mm; inhibition spot diameter in the agar diffusion test ([18]; listed as Na-31): 31 mm; MIC values, microdilution test ([19]; listed as Na-31): 0.78 µg/mL (≈ 0.85 µM); MIC values, microdilution test (E. coli ATCC 25922; listed as Na-31): 0.2 µg/mL (≈ 0.218 µM); MIC values, microdilution test [2]: 0.78 µg/mL (≈ 0.85 µM); inhibition spot diameter in the agar diffusion test ([21]; listed as Na-31): 31 mm; inhibition spot diameter in the agar diffusion test ([22]; listed as Na-31): 38 mm; inhibition spot diameter in the agar diffusion test [26]: 24 mm; inhibition spot diameter in the agar diffusion test ([23]; listed as Na-31): 34 mm; MIC values, microdilution test ([4]; listed as Na-31): 6.25 µg/mL (≈ 6.81 µM)

Reference: patent US6380181B1, “Synthetic catechol derivatives, method for production and use thereof” (priority 1996, dated 2002)
